Source: patent US20240246932A1 (Merck Sharp & Dohme LLC, priority 2021, published 2024)

Target: human NaV 1.8 channels stably expressed in HEK 293 cells (Homo sapiens (Human), UniProt Q9Y5Y9)
Assay: Nav1.8 Qube automated patch-clamp assay
Format: cell-based
Conditions: human NaV1.8 in HEK 293 cells, whole-cell voltage clamp, room temperature; read-out: IC50 values (nM) for Examples in the Nav1.8 Qube Assay
Description: Compounds were tested on human NaV 1.8 and NaV1.5 channels stably expressed in human embryo kidney (HEK) 293 cells. Sodium current measurements on Qube® were conducted as follows: automated 384-well patch-clamp assays on the Qube® platform (Sophion Biosciences) were used to measure the inhibition of sodium flow through human NaV1.8 and NaV1.5 channels. Whole-cell voltage-clamp recordings were performed in QChips® (Sophion Biosciences) at room temperature. NaV1.8 current measurements on Qube® were obtained as follows: NaV1.8 currents were elicited with a 10 second 1 Hertz (Hz) pulse train from a holding potential of −90 millivolts (mV), delivered to the cells once per minute in the control condition (DMSO only) and after compound addition. The 1 hertz pulse train stimulation consisted of ten test pulses to 10 millivolt (mV) for 20 milliseconds (ms), each of which was followed by a 980 millisecond repolarization to −67 millivolts. At the end of the 10 second pulse train stimulation, a 5 second hyperpolarization step to −100 millivolt (mV) was used to recover NaV1.8 from fast inactivation. The peak currents elicited by the 1st and 10th test pulses were used to determine IC50 values for resting inhibition and inactivated state inhibition. NaV1.5 current measurements on Qube® were obtained as follows: NaV1.5 currents were elicited with a 20 second 3 Hertz pulse train in the control condition (DMSO only) and after compound addition. The pulse train consisted of sixty 20 millisecond test pulses to 0 millivolt from a holding potential of −80 millivolt (mV). The average peak currents elicited by the last 3 test pulses were used to determine IC50 values for NaV1.5 inhibition.
The following buffers were used for the Qube® recordings: External buffer for NaV1.8 Qube® recording: 150 NaCl, 2 CaCl2, 5 KCl, 1 MgCl2, 10 HEPES, 12 Dextrose; External buffer for Qube® NaV1.5 recording: 120 N-Methyl-D-Glucamine, 40 NaCl, 1 KCl, 2.7 CaCl2), 5 HEPES, 0.5 MgCl2; and Internal buffer for Qube® recording: 120 CsF, 30 CsCl, 10 EGTA, 5 HEPES, 5 NaF, 2 MgCl2.
For all Qube® experiments offline analysis was used to determine percent inhibition as a function of drug concentration. IC50 values were determined by fitting to the Hill equation.

Chain of human NaV 1.8 channels stably expressed in HEK 293 cells (Q9Y5Y9 whole entry): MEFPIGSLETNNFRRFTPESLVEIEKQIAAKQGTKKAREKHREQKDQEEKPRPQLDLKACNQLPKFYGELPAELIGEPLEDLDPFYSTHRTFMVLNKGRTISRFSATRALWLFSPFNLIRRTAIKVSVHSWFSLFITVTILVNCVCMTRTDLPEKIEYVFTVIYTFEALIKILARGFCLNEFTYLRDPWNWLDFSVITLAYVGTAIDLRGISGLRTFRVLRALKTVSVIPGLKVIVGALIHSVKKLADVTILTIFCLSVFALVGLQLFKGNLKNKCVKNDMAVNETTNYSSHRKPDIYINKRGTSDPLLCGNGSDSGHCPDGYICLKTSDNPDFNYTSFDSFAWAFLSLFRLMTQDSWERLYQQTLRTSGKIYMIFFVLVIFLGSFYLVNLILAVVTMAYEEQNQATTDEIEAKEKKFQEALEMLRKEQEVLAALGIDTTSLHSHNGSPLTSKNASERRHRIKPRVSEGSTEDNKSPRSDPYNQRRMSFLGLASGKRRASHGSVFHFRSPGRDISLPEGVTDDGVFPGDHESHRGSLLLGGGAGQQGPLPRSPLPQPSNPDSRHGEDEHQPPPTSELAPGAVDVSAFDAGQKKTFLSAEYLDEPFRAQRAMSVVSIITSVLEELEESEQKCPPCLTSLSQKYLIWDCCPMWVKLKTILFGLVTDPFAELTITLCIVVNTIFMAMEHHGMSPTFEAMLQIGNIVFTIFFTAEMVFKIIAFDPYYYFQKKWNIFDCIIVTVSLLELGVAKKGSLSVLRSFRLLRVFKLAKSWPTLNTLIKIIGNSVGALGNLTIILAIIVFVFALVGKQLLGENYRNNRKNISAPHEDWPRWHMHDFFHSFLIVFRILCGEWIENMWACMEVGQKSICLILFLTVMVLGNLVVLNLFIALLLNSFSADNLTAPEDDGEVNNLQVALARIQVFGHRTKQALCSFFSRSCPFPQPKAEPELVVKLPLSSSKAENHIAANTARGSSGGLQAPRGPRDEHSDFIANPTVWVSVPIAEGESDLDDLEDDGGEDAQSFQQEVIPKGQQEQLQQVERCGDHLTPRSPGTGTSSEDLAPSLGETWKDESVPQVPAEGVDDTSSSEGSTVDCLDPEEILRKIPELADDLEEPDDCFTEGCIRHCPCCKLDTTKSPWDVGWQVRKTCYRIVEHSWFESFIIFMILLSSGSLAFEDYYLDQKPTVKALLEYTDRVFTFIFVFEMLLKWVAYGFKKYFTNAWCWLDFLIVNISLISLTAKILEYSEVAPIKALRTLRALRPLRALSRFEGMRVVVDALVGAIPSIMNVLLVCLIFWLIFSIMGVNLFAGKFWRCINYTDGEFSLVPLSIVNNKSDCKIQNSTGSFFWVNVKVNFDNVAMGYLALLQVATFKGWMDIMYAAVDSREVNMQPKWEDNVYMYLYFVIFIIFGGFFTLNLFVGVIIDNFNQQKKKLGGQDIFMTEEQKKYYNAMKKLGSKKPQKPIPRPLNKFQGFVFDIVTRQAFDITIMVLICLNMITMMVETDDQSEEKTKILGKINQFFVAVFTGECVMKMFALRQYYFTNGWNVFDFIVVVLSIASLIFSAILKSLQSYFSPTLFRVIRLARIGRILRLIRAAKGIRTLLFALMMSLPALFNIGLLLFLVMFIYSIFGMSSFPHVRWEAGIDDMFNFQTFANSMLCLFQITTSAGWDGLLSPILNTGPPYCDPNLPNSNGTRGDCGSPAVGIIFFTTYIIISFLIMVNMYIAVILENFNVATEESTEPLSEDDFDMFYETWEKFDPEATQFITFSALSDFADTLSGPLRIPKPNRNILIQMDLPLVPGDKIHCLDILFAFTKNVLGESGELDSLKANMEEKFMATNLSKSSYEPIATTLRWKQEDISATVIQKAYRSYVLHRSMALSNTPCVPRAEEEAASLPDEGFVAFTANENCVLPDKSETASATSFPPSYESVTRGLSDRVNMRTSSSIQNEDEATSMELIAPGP

SMILES | IC50
C[C@@H]1C(=O)NCCN1C(=O)NC(c1ccc(F)c(Cl)c1)c1cccc(OC(F)F)n1 (single isomer, unassigned) [Example 72A] | 195 nM
C[C@@H]1C(=O)NCCN1C(=O)NC(c1ccc(OC(F)(F)F)nc1)c1ccc(F)c(C(F)(F)F)n1 (single isomer, unassigned) [Example 51B, (2R)-N-((S or R)-(5-fluoro-6-(trifluoro-methyl)pyridin-2-yl)(6-(trifluoromethoxy)pyridin-3-yl)methyl)-2-methyl-3-oxopiperazine-1-carboxamide] | 13.2 nM
C[C@@H]1C(=O)NCCN1C(=O)NC(c1cccc(OC(F)(F)F)c1)c1ccc(F)c(C(F)(F)F)n1 (single isomer, unassigned) [Example 58A, (2R)-N-((R or S)-(5-fluoro-6-(trifluoro-methyl)pyridin-2-yl)(3-(trifluoromethoxy)phenyl)methyl)-2-methyl-3-oxopiperazine-1-carboxamide] | 3.6 nM
C[C@@H]1C(=O)NCCN1C(=O)NC(c1cnc(C(F)(F)F)nc1)c1ccc(Cl)c(Cl)c1 (single isomer, unassigned) [Example 28A, (2R)—N—((R or S)-(3,4-dichlorophenyl)(2-(trifluoromethyl)pyrimidin-5-yl)methyl)-2-methyl-3-oxopiperazine-1-carboxamide] | 10.8 nM
C[C@@H]1C(=O)NCCN1C(=O)NC(c1ccc(C(F)(F)F)nc1)c1ccc(Cl)c(Cl)c1 (single isomer, unassigned) [Example 18B, (2R)-N-((S or R)-(3,4-dichlorophenyl)(6-(trifluoromethyl)pyridin-3-yl)methyl)-2-methyl-3-oxopiperazine-1-carboxamide] | 4.69 nM
C[C@@H]1C(=O)NCCN1C(=O)NC(c1ccc(Cl)cc1)c1cccc(C(F)(F)F)n1 (single isomer, unassigned) [Example 9B, (2R)-N-((S or R)-(4-chlorophenyl)(6-(trifluoromethyl)pyridin-2-yl)methyl)-2-methyl-3-oxopiperazine-1-carboxamide] | 8.03 nM
C[C@@H]1C(=O)NCCN1C(=O)NC(c1ccc(Cl)cc1)c1ccc(OCC(F)(F)F)nc1 (single isomer, unassigned) [Example 5B, (2R)-N-((S or R)-(4-chlorophenyl)(6-(2,2,2-trifluoro-ethoxy)pyridin-3-yl)methyl)-2-methyl-3-oxopiperazine-1-carboxamide] | 28.9 nM
C[C@@H]1C(=O)NCCN1C(=O)NC(c1ccc(C(F)(F)F)nc1)c1ccc(F)c(Cl)c1 (single isomer, unassigned) [Example 16A, (2R)-N-((R or S)-(3-chloro-4-fluorophenyl)(6-(trifluoromethyl)pyridin-3-yl)methyl)-2-methyl-3-oxopiperazine-1-carboxamide] | 13.5 nM
C[C@@H]1C(=O)NCCN1C(=O)NC(c1ccc(OC(F)(F)F)cc1)c1ccc(F)c(C(F)(F)F)n1 (single isomer, unassigned) [Example 55A, (2R)-N-((R or S)-(5-fluoro-6-(trifluoro-methyl)pyridin-2-yl)(4-(trifluoromethoxy)phenyl)methyl)-2-methyl-3-oxopiperazine-1-carboxamide] | 2.68 nM
C[C@H]1C(=O)NCCN1C(=O)NC(c1ccc(F)c(Cl)c1)c1cccc(C(F)(F)F)n1 (single isomer, unassigned) [Example 45, (2S)-N-((R or S)-(3-chloro-4-fluoro-phenyl)(6-(trifluoro-methyl)pyridin-2-yl)methyl)-2-methyl-3-oxopiperazine-1-carboxamide] | 1700 nM
C[C@@H]1C(=O)NCCN1C(=O)NC(c1ccc(F)c(Cl)c1)c1ccc2nc(C(F)(F)F)cn2c1 (single isomer, unassigned) [Example 11A, (2R)-N-((R or S)-(3-chloro-4-fluoro-phenyl)(2-(trifluoro-methyl)imidazo[1,2-a]pyridin-6-yl)-methyl)-2-methyl-3-oxopiperazine-1-carboxamide] | 67.4 nM
C[C@@H]1C(=O)NCCN1C(=O)NC(c1cnc(C(F)(F)F)nc1)c1ccc(F)c(Cl)c1 (single isomer, unassigned) [Example 69B, (2R)-N-((S or R)-(3-chloro-4-fluorophenyl)(2-(trifluoromethyl)pyrimidin-5-yl)methyl)-2-methyl-3-oxopiperazine-1-carboxamide] | 23 nM
C[C@@H]1C(=O)NCCN1C(=O)NC(c1ccc(C(F)(F)F)nc1)c1ccc(F)c(OC(F)(F)F)c1 (single isomer, unassigned) [Example 19A, (2R)-N-((R or S)-(4-fluoro-3-(trifluoro-methoxy)phenyl)(6-(trifluoromethyl)pyridin-3-yl)methyl)-2-methyl-3-oxopiperazine-1-carboxamide] | 41.1 nM
C[C@@H]1C(=O)NCCN1C(=O)NC(c1ccc(Cl)cc1)c1cccc(C(F)(F)F)n1 (single isomer, unassigned) [Example 9A, (2R)-N-((R or S)-(4-chlorophenyl)(6-(trifluoromethyl)pyridin-2-yl)methyl)-2-methyl-3-oxo-piperazine-1-carboxamide] | 61.6 nM
C[C@@H]1C(=O)NCCN1C(=O)NC(c1ccc(F)c(Cl)c1)c1cnc(C(F)(F)F)c(Cl)c1 (single isomer, unassigned) [Example 26B, (2R)-N-((S or R)-(3-chloro-4-fluoro-phenyl)(5-chloro-6-(trifluoromethyl)pyridin-3-yl)methyl)-2-methyl-3-oxopiperazine-1-carboxamide] | 3.81 nM

Other lines, results leading:

IC50 | SMILES
3.54 nM | O=C1CN(C(=O)NC(c2ccc(Cl)c(C(F)(F)F)n2)c2ccc(F)c(Cl)c2F)CCN1 (single isomer, unassigned) [Example 78B, N-((S or R)-(3-chloro-2,4-difluorophenyl)(5-chloro-6-(trifluoro-methyl)pyridin-2-yl)methyl)-3-oxopiperazine-1-carboxamide]
559 nM | O=C1NCCN(C(=O)NC(c2ccc(C(F)(F)F)nc2)c2ccc(F)c(Cl)c2F)C1C1CC1 (single isomer, unassigned) [Example 38A, N—((R or S)-(3-chloro-2,4-difluorophenyl)(6-(trifluoromethyl)pyridin-3-yl)methyl)-(R)-2-cyclopropyl-3-oxopiperazine-1-carboxamide]
2020 nM | O=C1NCCN(C(=O)NC(c2cnc(C(F)(F)F)nc2)c2ccc(F)c(Cl)c2F)C1C1CC1 (single isomer, unassigned) [Example 41A, N-((R or S)-(3-chloro-2,4-difluorophenyl)(2-(trifluoromethyl)pyrimidin-5-yl)methyl)-(R or S)-2-cyclopropyl-3-oxopiperazine-1-carboxamide]
2.12 nM | C[C@@H]1C(=O)NCCN1C(=O)NC(c1cnc(C(F)(F)F)c(F)c1)c1ccc(F)c(Cl)c1F (single isomer, unassigned) [Example 34, (2R)—N—((R or S)-(3-chloro-2,4-difluorophenyl)(5-fluoro-6-(trifluoromethyl)pyridin-3-yl)methyl)-2-methyl-3-oxopiperazine-1-carboxamide]
110 nM | C[C@@H]1C(=O)NCCN1C(=O)NC(c1ccc(C(F)(F)F)nc1)c1ccc(Cl)c(C(F)(F)F)n1 (single isomer, unassigned) [Example 81B, (2R)-N-((S or R)-(5-chloro-6-(trifluoromethyl)pyridin-2-yl)(6-(trifluoro-methyl)pyridin-3-yl)methyl)-2-methyl-3-oxopiperazine-1-carboxamide]
64.5 nM | C[C@@H]1C(=O)NCCN1C(=O)NC(c1ccc(Cl)c(C#N)c1)c1ccc(F)c(C(F)(F)F)n1 (single isomer, unassigned) [Example 52B, (2R)-N-((S or R)-(4-chloro-3-cyano-phenyl)(5-fluoro-6-(trifluoromethyl)pyridin-2-yl)methyl)-2-methyl-3-oxopiperazine-1-carboxamide]
167 nM | C[C@@H]1C(=O)NCCN1C(=O)NC(c1ccc(C#N)cc1)c1ccc(Cl)c(C(F)(F)F)n1 (single isomer, unassigned) [Example 76B]
1.85 nM | O=C1NCCN(C(=O)NC(c2cnc(C(F)(F)F)c(F)c2)c2ccc(F)c(Cl)c2F)C1C1CC1 (single isomer, unassigned) [Example 37A, N-(R or S)-(3-chloro-2,4-difluorophenyl)(5-fluoro-6-(trifluoro-methyl)pyridin-3-yl)methyl)-(R or S)-2-cyclopropyl-3-oxopiperazine-1-carboxamide]
89.5 nM | C[C@@H]1C(=O)NCCN1C(=O)NC(c1ccc(C(C)(F)F)nc1)c1ccc(F)c(Cl)c1F (single isomer, unassigned) [Example 75A]
